This note sets out measurements from patent publication US12065436B2, “Cardiac sarcomere inhibitors” (Cytokinetics, Inc., priority 2018, dated 2024).

pIC50: −log10 of the molar value. Where only a bound is given, the exact number is not on record here.

The assay deals with bovine cardiac myofibrils (full-length cardiac myosin ATPase in the native sarcomere) (Bos taurus (Bovine), UniProt Q9BE39). In words: Skinned bovine cardiac myofibril ATPase assay (PK/LDH-coupled). The following applies: Ca2+ activating to 75% of maximal rate; for CDMF75 IC15: concentration giving 15% inhibition; for pIC50: read-out: CDMF75 IC50. It counts as biochemical. The gist of the method: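 Inhibition of steady-state ATPase read at 340 nm through a PK/LDH-coupled NADH system (0.5 mM NADH, 1.5 mM PEP). Detergent-skinned bovine cardiac myofibrils, 1 mg/mL, were tested at pH 6.8 in PIPES/MgCl2 with 50 μM ATP and calcium adjusted to give pCa50 or pCa75 activation.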
Sequence of bovine cardiac myofibrils (full-length cardiac myosin ATPase in the native sarcomere) (Q9BE39 whole entry): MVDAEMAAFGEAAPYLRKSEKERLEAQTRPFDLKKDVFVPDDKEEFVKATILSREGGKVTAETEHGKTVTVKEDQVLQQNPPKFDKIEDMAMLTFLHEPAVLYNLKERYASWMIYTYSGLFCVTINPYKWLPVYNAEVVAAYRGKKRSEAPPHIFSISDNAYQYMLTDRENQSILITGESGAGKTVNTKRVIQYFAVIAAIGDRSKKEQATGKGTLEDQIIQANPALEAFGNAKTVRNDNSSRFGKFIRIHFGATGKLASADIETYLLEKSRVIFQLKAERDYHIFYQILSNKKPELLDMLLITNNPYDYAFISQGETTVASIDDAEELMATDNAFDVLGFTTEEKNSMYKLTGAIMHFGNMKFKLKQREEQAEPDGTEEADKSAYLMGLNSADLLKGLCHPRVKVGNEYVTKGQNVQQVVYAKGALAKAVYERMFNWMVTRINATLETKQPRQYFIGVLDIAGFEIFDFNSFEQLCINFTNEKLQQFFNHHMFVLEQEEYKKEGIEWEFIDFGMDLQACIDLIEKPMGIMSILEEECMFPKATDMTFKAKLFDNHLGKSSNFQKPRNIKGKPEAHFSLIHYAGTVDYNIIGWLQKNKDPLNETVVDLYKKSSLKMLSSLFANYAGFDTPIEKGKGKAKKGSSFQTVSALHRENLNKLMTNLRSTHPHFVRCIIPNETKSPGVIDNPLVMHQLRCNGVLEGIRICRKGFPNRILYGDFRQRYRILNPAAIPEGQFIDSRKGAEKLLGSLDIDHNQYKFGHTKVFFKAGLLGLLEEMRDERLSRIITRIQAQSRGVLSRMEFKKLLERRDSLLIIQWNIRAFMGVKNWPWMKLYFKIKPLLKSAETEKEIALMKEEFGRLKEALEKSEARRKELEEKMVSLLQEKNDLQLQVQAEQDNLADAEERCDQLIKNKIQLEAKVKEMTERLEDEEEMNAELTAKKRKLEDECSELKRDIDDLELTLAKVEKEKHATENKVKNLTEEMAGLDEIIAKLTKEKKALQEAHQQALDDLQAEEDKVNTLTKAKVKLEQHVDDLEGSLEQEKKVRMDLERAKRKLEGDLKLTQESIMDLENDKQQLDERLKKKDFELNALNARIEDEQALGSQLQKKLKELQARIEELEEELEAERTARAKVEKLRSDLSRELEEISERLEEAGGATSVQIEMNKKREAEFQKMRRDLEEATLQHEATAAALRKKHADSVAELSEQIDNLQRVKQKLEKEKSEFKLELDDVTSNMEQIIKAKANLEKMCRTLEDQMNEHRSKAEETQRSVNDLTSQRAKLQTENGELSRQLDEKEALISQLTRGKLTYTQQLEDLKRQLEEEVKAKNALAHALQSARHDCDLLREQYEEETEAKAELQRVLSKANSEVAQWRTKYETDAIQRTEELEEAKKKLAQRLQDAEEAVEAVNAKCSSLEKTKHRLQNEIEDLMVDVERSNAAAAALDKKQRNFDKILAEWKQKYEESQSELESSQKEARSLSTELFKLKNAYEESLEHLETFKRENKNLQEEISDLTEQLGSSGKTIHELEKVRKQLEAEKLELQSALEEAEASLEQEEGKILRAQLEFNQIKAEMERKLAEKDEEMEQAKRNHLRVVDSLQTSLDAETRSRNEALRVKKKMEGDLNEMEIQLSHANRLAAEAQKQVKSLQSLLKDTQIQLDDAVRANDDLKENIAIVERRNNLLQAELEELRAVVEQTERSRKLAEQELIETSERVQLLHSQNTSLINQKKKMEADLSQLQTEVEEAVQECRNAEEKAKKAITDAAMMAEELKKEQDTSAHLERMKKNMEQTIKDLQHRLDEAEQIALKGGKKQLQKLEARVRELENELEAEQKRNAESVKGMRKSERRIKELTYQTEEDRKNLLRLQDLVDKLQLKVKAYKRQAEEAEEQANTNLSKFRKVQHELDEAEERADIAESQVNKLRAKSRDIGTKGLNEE
Sequence of bovine cardiac myofibrils (full-length cardiac myosin ATPase in the native sarcomere) (P85100 whole entry partner): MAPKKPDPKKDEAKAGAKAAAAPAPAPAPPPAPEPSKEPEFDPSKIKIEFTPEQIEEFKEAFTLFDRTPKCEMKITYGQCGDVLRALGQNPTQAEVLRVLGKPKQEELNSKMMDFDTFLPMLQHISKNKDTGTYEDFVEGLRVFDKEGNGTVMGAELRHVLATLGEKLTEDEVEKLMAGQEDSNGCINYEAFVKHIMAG
Sequence of bovine cardiac myofibrils (full-length cardiac myosin ATPase in the native sarcomere) (Q3SZE5 whole entry partner): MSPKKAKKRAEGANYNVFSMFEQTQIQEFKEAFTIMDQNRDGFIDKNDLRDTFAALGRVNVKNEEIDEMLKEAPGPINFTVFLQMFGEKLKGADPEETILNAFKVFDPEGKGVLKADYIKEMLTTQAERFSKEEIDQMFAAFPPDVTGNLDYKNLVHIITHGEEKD

Take `COCc1nc(-c2ccc3c(c2)OC[C@H]3NC(=O)c2cccc(CO)c2)no1` [Compound 711, (S)-3-(hydroxymethyl)-N-(6-(5-(methoxymethyl)-1,2,4-oxadiazol-3-yl)-2,3-dihydrobenzofuran-3-yl)benzamide]: the “CDMF75 IC15” value came to 800 nM and the pIC50 is 5.55.

Consider `Cc1nc(-c2ccc3c(c2)CCC3NC(=O)c2ncccc2C)no1` (stereo not shown) [Compound 59, 3-methyl-N-(5-(5-methyl-1,2,4-oxadiazol-3-yl)-2,3-dihydro-1H-inden-1-yl)picolinamide], for which the “CDMF75 IC15” value was determined as 5700 nM and the pIC50 was 4.55.

Turning to `CCc1nc(-c2ccc3c(c2)CC[C@H]3NC(=O)OCC(C)C)no1` [Compound 322, isobutyl (R)-(5-(5-ethyl-1,2,4-oxadiazol-3-yl)-2,3-dihydro-1H-inden-1-yl)carbamate], the “CDMF75 IC15” value stood at 300 nM and the pIC50 was 6.05.

`Cc1cc(C(=O)N[C@@H]2CCc3cc(-c4noc(C(F)F)n4)ccc32)cnn1` [Compound 687, (R)-N-(5-(5-(difluoromethyl)-1,2,4-oxadiazol-3-yl)-2,3-dihydro-1H-inden-1-yl)-6-methylpyridazine-4-carboxamide]: the “CDMF75 IC15” value came to 1000 nM and the pIC50 is 5.36.

As to `Cc1noc(-c2ccc3c(c2)CC[C@H]3NC(=O)c2nnc(C)o2)n1` [Compound 703, (R)-5-methyl-N-(5-(3-methyl-1,2,4-oxadiazol-5-yl)-2,3-dihydro-1H-inden-1-yl)-1,3,4-oxadiazole-2-carboxamide], the “CDMF75 IC15” value is 1700 nM and the pIC50 is 5.21.

Regarding `[2H]C([2H])([2H])c1nc(-c2ccc3c(c2)CC[C@H]3NC(=O)c2cnn(CCOC)c2)no1` [Compound 514, (R)-1-(2-methoxyethyl)-N-(5-(5-(methyl-d3)-1,2,4-oxadiazol-3-yl)-2,3-dihydro-1H-inden-1-yl)-1H-pyrazole-4-carboxamide], the “CDMF75 IC15” value was 2700 nM and the negative-log IC50 (pIC50) was 4.96.

For the compound `CCc1nc(-c2ccc3c(c2)CC[C@H]3NC(=O)c2nnn(Cc3ccccc3)n2)no1` [Compound 501, (R)-2-benzyl-N-(5-(5-ethyl-1,2,4-oxadiazol-3-yl)-2,3-dihydro-1H-inden-1-yl)-2H-tetrazole-5-carboxamide], the “CDMF75 IC15” value was 300 nM and the pIC50 was 5.96.

Take `Cc1nn(C)cc1C(=O)N[C@@H]1CCc2cc(-c3noc(C4CC4)n3)ccc21` [Compound 154, (R)-N-(5-(5-cyclopropyl-1,2,4-oxadiazol-3-yl)-2,3-dihydro-1H-inden-1-yl)-1,3-dimethyl-1H-pyrazole-4-carboxamide]: the “CDMF75 IC15” value was 400 nM and the pIC50 was 5.82.

Take `CCc1nc(-c2ccc3c(c2)CC[C@H]3NC(=O)OC2CCC2)no1` [Compound 321, cyclobutyl (R)-(5-(5-ethyl-1,2,4-oxadiazol-3-yl)-2,3-dihydro-1H-inden-1-yl)carbamate]: the “CDMF75 IC15” value came to 400 nM and the pIC50 was 5.89.

In the case of `Cn1cc(C(=O)NC2COc3cc(-c4noc(C(F)F)n4)ccc32)cn1` (stereo not shown) [Compound 219, N-(6-(5-(difluoromethyl)-1,2,4-oxadiazol-3-yl)-2,3-dihydrobenzofuran-3-yl)-1-methyl-1H-pyrazole-4-carboxamide], the “CDMF75 IC15” value turned out to be 700 nM and the pIC50 is 5.60.

In the case of `COCc1nc(-c2ccc3c(c2)OC[C@H]3NC(=O)c2ccnn2C)no1` [Compound 224, (S)-N-(6-(5-(methoxymethyl)-1,2,4-oxadiazol-3-yl)-2,3-dihydrobenzofuran-3-yl)-1-methyl-1H-pyrazole-5-carboxamide], the “CDMF75 IC15” value was 600 nM and the pIC50 was 5.68.

Turning to `CCc1nc(-c2ccc3c(c2)CC[C@H]3NC(=O)[C@@H]2CCNC(=O)C2)no1` [Compound 351, (R)-N-((R)-5-(5-ethyl-1,2,4-oxadiazol-3-yl)-2,3-dihydro-1H-inden-1-yl)-2-oxopiperidine-4-carboxamide], the “CDMF75 IC15” value came out at 18800 nM and the pIC50 is below 4.41.

As for `Cc1noc(-c2ccc3c(c2)CC[C@H]3NC(=O)c2ccnc(C(F)F)c2)n1` [Compound 716, (R)-2-(difluoromethyl)-N-(5-(3-methyl-1,2,4-oxadiazol-5-yl)-2,3-dihydro-1H-inden-1-yl)isonicotinamide], the “CDMF75 IC15” value came out at 1400 nM and the pIC50 was 5.23.

With `Cc1nc(-c2ccc3c(c2)CCC3NC(=O)c2c[nH]nc2C)no1` (stereo not shown) [Compound 70, 3-methyl-N-(5-(5-methyl-1,2,4-oxadiazol-3-yl)-2,3-dihydro-1H-inden-1-yl)-1H-pyrazole-4-carboxamide], the “CDMF75 IC15” value stood at 1400 nM and the pIC50 is 5.32.

With `Cn1nccc1C(=O)N[C@@H]1CCc2cc(-c3ccnnc3)ccc21` [Compound 369, (R)-1-methyl-N-(5-(pyridazin-4-yl)-2,3-dihydro-1H-inden-1-yl)-1H-pyrazole-5-carboxamide], the “CDMF75 IC15” value was 39200 nM and the pIC50 was below 4.41.

For `CCc1nc(-c2ccc3c(c2)CC[C@H]3NC(=O)c2cnn(CCOC)c2C)no1` [Compound 575, (R)-N-(5-(5-ethyl-1,2,4-oxadiazol-3-yl)-2,3-dihydro-1H-inden-1-yl)-1-(2-methoxyethyl)-5-methyl-1H-pyrazole-4-carboxamide], the “CDMF75 IC15” value was 1100 nM and the pIC50 is 5.38.

`CC(=O)c1nc(-c2ccc3c(c2)CC[C@H]3NC(=O)c2cnn(C)c2)no1` [Compound 545, N-[(1R)-5-(5-acetyl(1,2,4-oxadiazol-3-yl))indanyl](1-methylpyrazol-4-yl)carboxamide]: the “CDMF75 IC15” value was 3200 nM and the pIC50 is 4.88.

As to `CCc1noc(-c2ccc3c(c2)CC[C@H]3NC(=O)c2cnn(C)c2C)n1` [Compound 255, (R)-N-(5-(3-ethyl-1,2,4-oxadiazol-5-yl)-2,3-dihydro-1H-inden-1-yl)-1,5-dimethyl-1H-pyrazole-4-carboxamide], the “CDMF75 IC15” value was found to be 800 nM and the pIC50 is 5.59.

Turning to `COCC(=O)N[C@@H]1CCc2cc(-c3noc(C(F)F)n3)ccc21` [Compound 285, (R)-N-(5-(5-(difluoromethyl)-1,2,4-oxadiazol-3-yl)-2,3-dihydro-1H-inden-1-yl)-2-methoxyacetamide], the “CDMF75 IC15” value is 9300 nM and the pIC50 is below 4.41.

With `[2H]C([2H])([2H])c1nc(-c2ccc3c(c2)CC[C@H]3NC(=O)c2cn[nH]c2)no1` [Compound 491, (R)-N-(5-(5-(methyl-d3)-1,2,4-oxadiazol-3-yl)-2,3-dihydro-1H-inden-1-yl)-1H-pyrazole-4-carboxamide], the “CDMF75 IC15” value was 1000 nM and the negative logarithm of the IC50 (pIC50) was 5.43.

For `Cc1n[nH]cc1C(=O)N[C@@H]1CCc2cc(-c3noc(C(C)C)n3)ccc21` [Compound 396, (R)-N-(5-(5-isopropyl-1,2,4-oxadiazol-3-yl)-2,3-dihydro-1H-inden-1-yl)-3-methyl-1H-pyrazole-4-carboxamide], the “CDMF75 IC15” value stood at 400 nM and the negative logarithm of the IC50 (pIC50) was 5.80.

With `Cc1oncc1C(=O)N[C@@H]1CCc2cc(-c3noc(C(F)F)n3)ccc21` [Compound 72, (R)-N-(5-(5-(difluoromethyl)-1,2,4-oxadiazol-3-yl)-2,3-dihydro-1H-inden-1-yl)-5-methylisoxazole-4-carboxamide], the “CDMF75 IC15” value worked out at 300 nM and the pIC50 is 6.00.

On to `Cn1cc(C(=O)N[C@@H]2CCc3cc(-c4nc(C5CC5)no4)ccc32)cn1` [Compound 258, (R)-N-(5-(3-cyclopropyl-1,2,4-oxadiazol-5-yl)-2,3-dihydro-1H-inden-1-yl)-1-methyl-1H-pyrazole-4-carboxamide], for which the “CDMF75 IC15” value came out at 1500 nM and the pIC50 was 5.24.

`CC(=O)N[C@@H]1COc2cc(-c3noc(C(F)F)n3)ccc21` [Compound 444, (S)-N-(6-(5-(difluoromethyl)-1,2,4-oxadiazol-3-yl)-2,3-dihydrobenzofuran-3-yl)acetamide]: the “CDMF75 IC15” value came out at 1600 nM and the pIC50 is 5.10.

As to `CCc1nc(-c2ccc3c(c2)CC[C@H]3NC(=O)c2ocnc2C)no1` [Compound 386, (R)-N-(5-(5-ethyl-1,2,4-oxadiazol-3-yl)-2,3-dihydro-1H-inden-1-yl)-4-methyloxazole-5-carboxamide], the “CDMF75 IC15” value was 300 nM and the pIC50 is 6.10.

`CCc1nc(-c2ccc3c(c2)CC[C@H]3NC(=O)OC2CCCC2)no1` [Compound 325, cyclopentyl (R)-(5-(5-ethyl-1,2,4-oxadiazol-3-yl)-2,3-dihydro-1H-inden-1-yl)carbamate]: the “CDMF75 IC15” value was found to be 500 nM and the pIC50 is 5.72.

Consider `Cc1nccnc1C(=O)NC1CCc2cc(-c3noc(C(F)F)n3)ccc21` (stereo not shown) [Compound 38, N-(5-(5-(difluoromethyl)-1,2,4-oxadiazol-3-yl)-2,3-dihydro-1H-inden-1-yl)-3-methylpyrazine-2-carboxamide], for which the “CDMF75 IC15” value amounted to 2200 nM and the pIC50 is 5.02.

For `CCc1nc(-c2ccc3c(c2)CC[C@H]3NC(=O)c2cnn(CCCOC)c2C)no1` [Compound 598, (R)-N-(5-(5-ethyl-1,2,4-oxadiazol-3-yl)-2,3-dihydro-1H-inden-1-yl)-1-(3-methoxypropyl)-5-methyl-1H-pyrazole-4-carboxamide], the “CDMF75 IC15” value is 3900 nM and the pIC50 was 4.80.

As to `Cc1nc(-c2ccc3c(c2)OC[C@H]3NC(=O)c2ccnc(C(C)O)c2)no1` (stereo partly drawn) [Compound 738, 2-(1-hydroxyethyl)-N-((S)-6-(5-methyl-1,2,4-oxadiazol-3-yl)-2,3-dihydrobenzofuran-3-yl)isonicotinamide], the “CDMF75 IC15” value turned out to be 2100 nM and the pIC50 is 5.02.

In general, pIC50 refers to the IC50 on a negative log10 scale, so that one unit is a factor of ten.
